Reference: patent publication US10676462B2, “Quinoline derivative” (ONO PHARMACEUTICAL CO., LTD., priority 2013, dated 2020)

Target: T1, Ba/F3 Axl (Homo sapiens, UniProt P30530)
T1 sequence (P30530 1-894): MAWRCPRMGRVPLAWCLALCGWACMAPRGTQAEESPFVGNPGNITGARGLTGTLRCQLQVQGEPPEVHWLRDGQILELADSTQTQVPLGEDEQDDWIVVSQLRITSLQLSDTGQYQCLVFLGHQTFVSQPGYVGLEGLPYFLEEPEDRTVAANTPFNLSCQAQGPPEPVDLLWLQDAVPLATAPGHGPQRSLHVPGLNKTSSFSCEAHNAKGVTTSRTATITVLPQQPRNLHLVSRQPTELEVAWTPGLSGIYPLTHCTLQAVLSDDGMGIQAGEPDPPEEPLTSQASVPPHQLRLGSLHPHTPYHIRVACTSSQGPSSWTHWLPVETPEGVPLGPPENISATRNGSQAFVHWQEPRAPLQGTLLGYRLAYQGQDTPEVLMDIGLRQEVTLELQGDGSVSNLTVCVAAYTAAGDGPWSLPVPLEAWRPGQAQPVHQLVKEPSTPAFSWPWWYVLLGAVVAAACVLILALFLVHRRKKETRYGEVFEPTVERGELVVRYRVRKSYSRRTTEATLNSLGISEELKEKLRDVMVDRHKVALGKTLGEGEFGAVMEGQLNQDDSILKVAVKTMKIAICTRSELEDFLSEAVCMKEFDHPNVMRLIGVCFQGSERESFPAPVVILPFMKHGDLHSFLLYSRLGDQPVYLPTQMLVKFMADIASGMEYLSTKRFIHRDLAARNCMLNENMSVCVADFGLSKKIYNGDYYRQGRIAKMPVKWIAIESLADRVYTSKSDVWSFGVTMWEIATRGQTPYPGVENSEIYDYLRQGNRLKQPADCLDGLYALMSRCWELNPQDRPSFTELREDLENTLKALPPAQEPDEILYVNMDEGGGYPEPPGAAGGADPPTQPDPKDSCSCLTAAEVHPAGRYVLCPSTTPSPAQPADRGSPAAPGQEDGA
Assay: Proliferation suppression rate using mouse pro-B cell line (Ba/F3 Axl) stably expressing Axl
Assay type: cell-based
Settings: Ba/F3 Axl cells, 48 hours, CellTiter-Glo; read-out: IC50 value, proliferation suppression of Ba/F3 Axl
Method: Biological Example 2: Measurement of Proliferation Suppression Rate by Using Mouse Pro-B Cell Line (Ba/F3 Axl) Stably Expressing Axl
A 0.1 mmol/L DMSO solution of the test compound was dispensed into a 96-well plate, and a 3-fold dilution series was prepared using DMSO. DMSO solutions of test compounds, having various concentrations, were further 500-fold diluted with a RPMI1640 medium (containing 10% HI-FBS, 1% penicillin) and a diluted solution of the test compound having […] with respect to the final concentration was prepared. In each well of the 96-well plate (BD Biosciences) for measurement, 50 μL of a RPMI medium was added to the Blank group, 50 μL of a RPMI medium containing 0.2% DMSO was added to the medium group, and 50 μL of the diluted solution of the test compound was added to the test compound group, respectively. Ba/F3 Axl was diluted with a medium to have a density of 2×10^5 cells/mL to prepare a cell suspension. In each well of the 96-well plate for measurement, 50 μL each of the RPMI medium was added to the Blank group, and 50 μL each of the cell suspension to the medium group and the test compound group, respectively, and the groups were stood still at 37° C. at 5% CO2 for 48 hours. After standing still, Relative Light Unit (RLU) was measured by using CELLTITER-GLO (registered trademark) LUMINESCENT CELL VIABILITY ASSAY (Promega). The measurement was carried out according to the attached instruction. To each well, 100 μL each of light-emitting solution was added. The plate was stirred at room temperature for 3 min and then stool still at room temperature with light shielded for 10 min, and RLU was measured by using Microplate Reader (SpectraMax M5e, Molecular Devices). The average values of RLU of the Blank group and the medium group were respectively calculated, and the proliferation suppression rate of the test compound group was calculated. Proliferation suppression rate (%)={1−(RLU of test compound group−A)/(B−A)}×100 [Math. 2] A: average value of RLU of Blank group B: average value of RLU of medium group
A value of 50% inhibition rate (IC50 value) of the test compound was calculated from the inhibition curve based on the inhibition rate in each concentration of the test compound.

SMILES	GI50 [nM]
COc1cc2nccc(Oc3ccc(NC(=O)c4cc5c(n(-c6ccccc6)c4=O)CC(C)(C)CC5=O)nc3)c2cc1OC [Example 5(1), N-{5-[(6,7-dimethoxy-4-quinolinyl)oxy]-2-pyridinyl}-7,7-dimethyl-2,5-dioxo-1-phenyl-1,2,5,6,7,8-hexahydro-3-quinolinecarboxamide]	0.8
COc1cc2nccc(Oc3ccc(NC(=O)c4cc5c(n(-c6ccccc6)c4=O)CCCC5=O)nc3)c2cc1OC [Example 5, N-{5-[(6,7-dimethoxy-4-quinolinyl)oxy]-2-pyridinyl}-2,5-dioxo-1-phenyl-1,2,5,6,7,8-hexahydro-3-quinolinecarboxamide]	0.7
O=C1CCCc2c1cc(C(=O)Nc1ccc(Oc3ccnc4cc(OCCCN5CCOCC5)ccc34)cn1)c(=O)n2-c1ccccc1 [Example 17(2), N-[5-({7-[3-(4-morpholinyl)propoxy]-4-quinolinyl}oxy)-2-pyridinyl]2,5-dioxo-1-phenyl-1,2,5,6,7,8-hexahydro-3-quinolinecarboxamide]	1.2
COc1cc2nccc(Oc3ccc(NC(=O)c4cc5c(n(-c6ccccc6)c4=O)CCCC5=O)c(C)c3)c2cc1OC [Example 23(2), N-{4-[(6,7-dimethoxy-4-quinolinyl)oxy]-2-methylphenyl}-2,5-dioxo-1-phenyl-1,2,5,6,7,8-hexahydro-3-quinolinecarboxamide]	1.2
